Measured values as given in the supplement of paper PMC10307832.

Columns and labels:
Test in all cases: relative viability (nuclei count vs DMSO), 5 days (fraction); higher = more cells survive
[1] = compound: O[C@H]1CC[C@H](Nc2ncc3nc(Nc4c(F)cc(F)cc4F)n([C@H]4CCOC4)c3n2)CC1 [Tanzisertib] + N=C(N)NC(=N)NCCc1ccccc1 [Phenformin] (partner 250 µM)
Summary of the method: (§1)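 Lung cancer cell lines in 1536-well plates were dosed by pin tool the day after seeding, either with one drug alone or with a fixed anchor-drug dose plus five library-drug doses (not always all listed) in √10 steps. After 5 days, cells were fixed and their nuclei stained in one step (final 0.05% Triton X-100, 1% formaldehyde, 1 ug/ml Hoechst), then counted on 4× images. Relative viability is the nuclei count in treated wells divided by that in vehicle wells. Values are medians of duplicate plates.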

[2] = compound: C1CNCCC1C2=CC(=NN2)C3=CC=NC=C3 + N=C(N)NC(=N)NCCc1ccccc1 [Phenformin] (partner 250 µM)
Summary of the method: as §1

[3] = compound: O[C@H]1CC[C@H](Nc2ncc3nc(Nc4c(F)cc(F)cc4F)n([C@H]4CCOC4)c3n2)CC1 [Tanzisertib] + O=C(c1cc(Cc2n[nH]c(=O)c3ccccc23)ccc1F)N1CCN(C(=O)C2CC2)CC1 [Olaparib] (partner 8 µM)
Summary of the method: as §1

[4] = compound: C[C@@H](N)c1ccc(C(=O)Nc2ccnc3[nH]ccc23)cc1 + CS(=O)(=O)CCNCc1ccc(-c2ccc3ncnc(Nc4ccc(OCc5cccc(F)c5)c(Cl)c4)c3c2)o1 [Lapatinib] (partner 2 µM)
Summary of the method: as §1

Row | Cell Line | relative viability ([1]; first compound 0.08 µM) | relative viability ([1]; first compound 0.253 µM) | relative viability ([1]; first compound 0.8 µM) | relative viability ([1]; first compound 2.53 µM) | relative viability ([1]; first compound 8 µM) | relative viability ([2]; first compound 0.08 µM) | relative viability ([2]; first compound 0.8 µM) | relative viability ([2]; first compound 2.53 µM) | relative viability ([2]; first compound 8 µM) | relative viability ([3]; first compound 0.08 µM) | relative viability ([3]; first compound 0.253 µM) | relative viability ([3]; first compound 0.8 µM) | relative viability ([3]; first compound 2.53 µM) | relative viability ([3]; first compound 8 µM) | relative viability ([4]; first compound 0.04 µM) | relative viability ([4]; first compound 0.1265 µM) | relative viability ([4]; first compound 0.4 µM) | relative viability ([4]; first compound 1.265 µM) | relative viability ([4]; first compound 4 µM)
1 | ChaGo-K-1 | 0.547 | 0.545 | 0.447 | 0.493 | 0.482 | 0.458 | 0.527 | 0.462 | 0.462 | 0.511 | 0.422 | 0.453 | 0.45 | 0.438 |  |  |  |  | 
2 | EBC-1 |  |  |  |  |  |  |  |  |  | 0.747 | 0.675 | 0.675 | 0.603 | 0.536 | 0.265 | 0.239 | 0.219 | 0.179 | 0.171
3 | IA-LM |  |  |  |  |  |  |  |  |  | 0.738 | 0.765 | 0.754 | 0.859 | 0.789 | 0.779 | 0.954 | 0.865 | 1.27 | 0.957
4 | LCLC-103H | 0.375 | 0.327 | 0.309 | 0.345 | 0.343 | 0.318 | 0.351 | 0.361 | 0.342 | 0.76 | 0.813 | 0.816 | 0.8 | 0.81 |  |  |  |  | 
5 | NCI-H441 | 1.12 | 0.723 | 0.725 | 0.853 | 0.817 | 0.634 | 0.947 | 0.831 | 0.753 | 0.642 | 0.611 | 0.545 | 0.496 | 0.535 |  |  |  |  | 
6 | NCI-H522 | 0.783 | 0.57 | 0.667 | 0.677 | 0.572 | 0.552 | 0.657 | 0.771 | 0.689 | 0.629 | 0.809 | 0.726 | 0.647 | 0.634 |  |  |  |  | 
7 | NCI-H1299 |  |  |  |  |  |  |  |  |  | 0.997 | 0.972 | 0.96 | 1.1 | 1.03 | 0.908 | 0.93 | 0.91 | 0.837 | 0.737
8 | NCI-H1563 | 0.662 | 0.688 | 0.654 | 0.681 | 0.624 | 0.619 | 0.642 | 0.679 | 0.673 |  |  |  |  |  | 0.805 | 0.945 | 0.854 | 0.446 | 1.05
9 | NCI-H1623 | 0.587 | 0.574 | 0.639 | 0.572 | 0.551 | 0.6 | 0.502 | 0.642 | 0.637 |  |  |  |  |  |  |  |  |  | 
10 | NCI-H1648 |  |  |  |  |  |  |  |  |  | 0.662 | 1.22 | 0.797 | 0.817 | 0.765 |  |  |  |  | 
11 | NCI-H1703 |  |  |  |  |  |  |  |  |  | 0.457 | 0.453 | 0.388 | 0.35 | 0.392 | 1.24 | 0.982 | 0.85 | 0.847 | 0.541
12 | NCI-H2342 | 0.618 | 0.643 | 0.57 | 0.557 | 0.532 | 0.512 | 0.501 | 0.688 | 0.631 | 0.572 | 0.423 | 0.483 | 0.485 | 0.439 |  |  |  |  | 
13 | SW 900 | 0.725 | 0.601 | 0.749 | 0.587 | 0.512 | 0.64 | 0.548 | 0.738 | 0.628 |  | 0.82 | 0.963 | 0.782 | 0.722 |  |  |  |  | 
